Read-outs that look alike come from different tables or passages of the source.
Tests used:
[1] = test system: GluCer, GluSph and LacCer in plasma, PBMCs and CSF; assay: LTI-291-002: glycolipid biomarkers; type: in vivo, human; conditions: healthy subjects
Procedure: This study was a phase 1, randomized, double-blind, placebo-controlled, multiple ascending dose study of Compound A in 4 cohorts of middle-aged to elderly healthy participants (aged 52 to 75 years). […] A total of 39 healthy subjects were enrolled in 4 sequential cohorts. Subjects in each cohort received once-daily oral doses of 3 mg (n=7), 10 mg (n=8), 30 mg (n=8), or 60 mg (n=8) Compound A or placebo (n=8) for 14 days. Pharmacokinetic parameters were determined for each dose at Day 1, Day 7, and Day 14. Cerebrospinal fluid samples for Compound A concentrations were measured before the first dose and 4 hours after the last dose for each dose level. GluCer, glucosyl sphingosine (GluSph), and lactosyl-ceramide (LacCer) were measured in plasma, PBMCs, and CSF as biomarkers of pharmacological effects. Pharmacodynamic measurements consisted of battery of CNS (NeuroCart®) assessments including Saccadic Eye Movements, Smooth Pursuit Eye Movements, Adaptive Tracking, Body Sway, Visual Verbal Learning Test, and pharmaco-EEG.

[2] = LTI-291-003 multiple dose study in GBA-PD: plasma and CSF pharmacokinetics; type: in vivo, human; conditions: for Tmin / Tmax: median; for Kp at 4 h / Cmax / AUC(0-t) / Tmax: human, oral; for Kp at 4 h: CSF and plasma, after the 28th daily dose, read-out: CSF-to-plasma concentration ratio, mean (SD); for Cmax / AUC(0-t) / Tmax: plasma
Description: This study was a Phase 1b, randomized, double-blind, placebo-controlled, multiple oral dose study of Compound A in 40 subjects (aged 40 to 80 years) with GBA-PD. Approximately 50% of the enrolled subjects had major (loss of 30%-50% total activity) mutations in GCase and 50% had polymorphism mutation (loss of 10%-20% of total activity) mutations in GCase. The objectives of this study were to investigate the safety, tolerability, and PK of multiple once-daily oral administration of Compound A and to explore the accompanying pharmacodynamic changes in subjects with GBA-PD with major and polymorphism mutations. Subjects received once-daily oral doses of 10 mg (n=10), 30 mg (n=10), or 60 mg (2×30 mg capsules) (n=10) Compound A or placebo (n=10) for 28 consecutive days.
Blood samples for Compound A concentrations were collected up to 6 hours after the first and last doses. CSF samples for Compound A concentrations were taken before the first dose and 4 hours after the last dose for each dose level.

[3] = 10 mg daily, dose 28, GBA-PD, geometric mean
[4] = 30 mg daily, dose 1, GBA-PD, geometric mean
[5] = 30 mg daily, dose 28, GBA-PD, geometric mean
[6] = 60 mg daily, dose 1, GBA-PD, geometric mean
[7] = 60 mg daily, dose 28, GBA-PD, geometric mean

CCCCCO[C@H]1CC[C@H](NC(=O)c2cnn3c(C)cc(C)nc23)CC1 [Compound A, 5,7-dimethyl-N-((1S*,4S)-4-(pentyloxy)cyclohexyl)pyrazolo[1,5-a]pyrimidine-3-carboxamide]
consistent pharmacodynamic effect on glycolipids ([1]; 14 days of dosing): not observed | GluCer and LacCer variables in CSF ([1]; 14 days): sporadic, statistically significant decreases | GluCer and LacCer variables in plasma and PBMCs ([1]; 14 days): Sporadic, statistically significant increases | Cmax/dose ([2]; 10 mg daily, dose 1, GBA-PD, geometric mean): 25.4 ng/mL/mg | AUC0-last/dose ([2]; 10 mg daily, dose 1, GBA-PD, geometric mean (% CV)): 109 (32.8) ng · h/mL mg | AUC0-last/dose [2, 3]: 252 ng·h/mL/mg | Cmax/dose [2, 3]: 52.0 ng/mL/mg | Cmin [2, 3]: 0.246 µg/mL | Tmin ([2]; 10 mg daily, dose 28, GBA-PD): 26.3 h | AUC0-last/dose [2, 4]: 76.8 ng·h/mL/mg | Cmax/dose [2, 4]: 18.7 ng/mL/mg | AUC0-last/dose [2, 5]: 241 ng·h/mL/mg | Cmax/dose [2, 5]: 47.9 ng/mL/mg | Cmin [2, 5]: 0.788 µg/mL | Tmin ([2]; 30 mg daily, dose 28, GBA-PD): 26.1 h | AUC0-last/dose [2, 6]: 102 ng·h/mL/mg | Cmax/dose [2, 6]: 25.5 ng/mL/mg | Cmax/dose [2, 7]: 46.6 ng/mL/mg | Cmin [2, 7]: 1.37 µg/mL | AUC0-last/dose ([2]; 60 mg daily, dose 28, GBA-PD, geometric mean (% CV)): 234 (15.7) ng · h/mL mg | Tmin ([2]; 60 mg daily, dose 28, GBA-PD): 26.0 h | total exposure (Cmax and AUC0-last) versus dose ([2]; 10 to 60 mg, after 1st and 28th dose): increase in a dose proportional manner | time of peak plasma concentrations (median) ([2]; after the 1st and 28th daily dose): 2.0 h | Kp at 4 h ([2]; 10 mg): 0.0113 | Kp at 4 h ([2]; 30 mg): 0.0122 | Kp at 4 h ([2]; 60 mg): 0.0115 | Cmax ([2]; 10 mg, 10 mg daily, dose 1, GBA-PD, geometric mean (% CV)): 0.254 µg/mL | AUC(0-t) ([2]; 10 mg, 10 mg daily, dose 1, GBA-PD, geometric mean, read-out: AUC0-6): 1.08 µg·h/mL | AUC(0-t) ([2]; 10 mg, 10 mg daily, dose 1, GBA-PD, geometric mean, read-out: AUC0-last): 1.09 µg·h/mL | Cmax ([2]; 10 mg, 10 mg daily, dose 28, GBA-PD, geometric mean): 0.52 µg/mL | AUC(0-t) ([2]; 10 mg, 10 mg daily, dose 28, GBA-PD, geometric mean, read-out: AUC0-6): 2.52 µg·h/mL | AUC(0-t) ([2]; 10 mg, 10 mg daily, dose 28, GBA-PD, geometric mean, read-out: AUC0-last): 2.52 µg·h/mL | Cmax ([2]; 30 mg, 30 mg daily, dose 1, GBA-PD, geometric mean (% CV)): 0.561 µg/mL | AUC(0-t) ([2]; 30 mg, 30 mg daily, dose 1, GBA-PD, geometric mean, read-out: AUC0-6): 2.3 µg·h/mL | AUC(0-t) ([2]; 30 mg, 30 mg daily, dose 1, GBA-PD, geometric mean, read-out: AUC0-last): 2.3 µg·h/mL | Cmax ([2]; 30 mg, 30 mg daily, dose 28, GBA-PD, geometric mean): 1.44 µg/mL | AUC(0-t) ([2]; 30 mg, 30 mg daily, dose 28, GBA-PD, geometric mean, read-out: AUC0-6): 7.23 µg·h/mL | AUC(0-t) ([2]; 30 mg, 30 mg daily, dose 28, GBA-PD, geometric mean, read-out: AUC0-last): 7.23 µg·h/mL | Cmax ([2]; 60 mg, 60 mg daily, dose 1, GBA-PD, geometric mean): 1.53 µg/mL | AUC(0-t) ([2]; 60 mg, 60 mg daily, dose 1, GBA-PD, geometric mean, read-out: AUC0-6): 6.08 µg·h/mL | AUC(0-t) ([2]; 60 mg, 60 mg daily, dose 1, GBA-PD, geometric mean, read-out: AUC0-last): 6.1 µg·h/mL | Cmax ([2]; 60 mg, 60 mg daily, dose 28, GBA-PD, geometric mean): 2.79 µg/mL | AUC(0-t) ([2]; 60 mg, 60 mg daily, dose 28, GBA-PD, geometric mean, read-out: AUC0-6): 14.1 µg·h/mL | AUC(0-t) ([2]; 60 mg, 60 mg daily, dose 28, GBA-PD, geometric mean, read-out: AUC0-last): 14.1 µg·h/mL | Tmax ([2]; 10 mg daily, dose 1, GBA-PD): 2 h | Tmax ([2]; 30 mg daily, dose 1, GBA-PD): 2 h | Tmax ([2]; 60 mg daily, dose 1, GBA-PD): 2 h | PK in healthy subjects versus subjects with GBA-PD ([2]; in vivo): similar

Source: patent publication US20260240851A1, “Treatment of Parkinson's Disease in a Patient Using a Glucocerebrosidase Activator” (BIAL - R&D Investments, S.A., priority 2023, published 2026)
